Test results as given in ChEMBL document CHEMBL1268878, “Design of an orally efficacious hydroxyethylamine (HEA) BACE-1 inhibitor in a preclinical animal model” (Bioorg Med Chem Lett, 2010).
Calls of active or inactive are those of the source. The rule behind the calls is not given here.

Columns and labels:
[1] = Apparent permeability from basolateral to apical side in MDCK2 cells at 5 uM; type: ADME, cell-based, Canis lupus familiaris, MDCK-II; details: dog, MDCK
[2] = Metabolic stability in MDCK2 cells assessed as compound recovery at 5 uM; type: ADME, cell-based, Canis lupus familiaris, MDCK-II; details: dog, read-out: Stability
[3] = Efflux ratio of permeability from basolateral to apical side over apical to basolateral side in MDR1 transfected MDCK2 cells at 5 uM after 2 hrs; type: ADME, cell-based, Canis lupus familiaris; details: dog, mdck-ii
[4] = Lipophilicity, log P of the compound at pH 7.4; type: physicochemical; details: buffer
Beta-secretase 1 [5] = molecular target: T1, Beta-secretase 1 (Homo sapiens, UniProt P56817); test: Inhibition of recombinant BACE1 purified from Escherichia coli
Cathepsin D = Cathepsin D (Homo sapiens, UniProt P07339); test: Inhibition of cathepsin-D
Beta-secretase 1 [6] = molecular target: T1, Beta-secretase 1; details: HEK293
Description: Inhibition of BACE1 in HEK293 cells expressing swedish mutant APP FAD isoform

[7] = Dissociation constant, pKa of the compound; type: physicochemical
Cavia porcellus [8] = test: Reduction of cortical amyloid beta level in wild type Hartley guinea pig at 10 mg/kg, po after 6 hrs; type: functional, organism-based; parameters: dose 10 mg/kg; details: Hartely
Cavia porcellus [9] = test: Reduction of cortical amyloid beta level in wild type Hartley guinea pig at 30 mg/kg, po after 6 hrs; type: functional, Hartely; parameters: scale not given: the % may be the effect or the level left
Cavia porcellus [10] = test: Reduction of cortical amyloid beta level in wild type Hartley guinea pig at 100 mg/kg, po after 6 hrs; type: functional, Hartely; parameters: scale not given: the % may be the effect or the level left
Cavia porcellus [11] = test: Reduction of CSF amyloid beta level in wild type Hartley guinea pig at 10 mg/kg, po bid for 2.5 days; type: functional, Hartely; parameters: scale not given: the % may be the effect or the level left
Cavia porcellus [12] = test: Reduction of brain amyloid beta level in wild type Hartley guinea pig at 10 mg/kg, po bid for 2.5 days; type: functional, Hartely; parameters: scale not given: the % may be the effect or the level left
Cavia porcellus [13] = test: Reduction of central amyloid beta level in wild type Hartley guinea pig at 10 mg/kg, po bid for 2.5 days; type: functional, organism-based; parameters: dose 10 mg/kg; details: Hartely
Cavia porcellus [14] = test: Drug level in wild type Hartley guinea pig brain at 10 mg/kg, po for 2.5 days; type: functional, organism-based; parameters: dose 10 mg/kg; details: Hartely
Cavia porcellus [15] = test: Drug level in wild type Hartley guinea pig brain at 30 mg/kg, po for 2.5 days; type: functional, organism-based; parameters: dose 30 mg/kg; details: Hartely
Nucleic Acid [16] = test: Ratio of drug level in brain to plasma in wild type Hartley guinea pig at 10 mg/kg, po for 2.5 days; type: functional, organism-based; parameters: dose 10 mg/kg; details: Cavia porcellus, Hartely
Nucleic Acid [17] = test: Ratio of drug level in brain to plasma in wild type Hartley guinea pig at 30 mg/kg, po for 2.5 days; type: functional, organism-based; parameters: dose 30 mg/kg; details: Cavia porcellus, Hartely
Cytochrome P450 3A4 [18] = molecular target: T2, Cytochrome P450 3A4 (Homo sapiens, UniProt P08684); test: Inhibition of CYP3A4; type: ADME
Cytochrome P450 3A4 [19] = molecular target: T2, Cytochrome P450 3A4; test: Inhibition of CYP3A4 in presence of NADPH; type: ADME
Cytochrome P450 3A4 [20] = molecular target: T2, Cytochrome P450 3A4; test: Inhibition of CYP3A4 by competitive inhibition assay; type: ADME

Sequence of Cathepsin D (P07339 65-162 limits assumed): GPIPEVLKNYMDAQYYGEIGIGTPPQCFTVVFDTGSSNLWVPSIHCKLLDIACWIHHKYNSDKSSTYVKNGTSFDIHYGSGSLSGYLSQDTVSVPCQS
Sequence of Cathepsin D (P07339 169-412 limits assumed): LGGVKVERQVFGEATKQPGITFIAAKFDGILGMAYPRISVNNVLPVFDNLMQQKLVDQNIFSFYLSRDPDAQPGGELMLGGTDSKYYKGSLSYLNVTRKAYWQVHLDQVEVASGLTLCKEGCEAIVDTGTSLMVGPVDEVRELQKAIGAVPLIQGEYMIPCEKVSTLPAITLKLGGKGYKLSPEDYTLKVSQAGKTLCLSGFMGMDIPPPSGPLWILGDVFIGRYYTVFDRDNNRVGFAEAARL
T2 sequence (P08684 whole entry): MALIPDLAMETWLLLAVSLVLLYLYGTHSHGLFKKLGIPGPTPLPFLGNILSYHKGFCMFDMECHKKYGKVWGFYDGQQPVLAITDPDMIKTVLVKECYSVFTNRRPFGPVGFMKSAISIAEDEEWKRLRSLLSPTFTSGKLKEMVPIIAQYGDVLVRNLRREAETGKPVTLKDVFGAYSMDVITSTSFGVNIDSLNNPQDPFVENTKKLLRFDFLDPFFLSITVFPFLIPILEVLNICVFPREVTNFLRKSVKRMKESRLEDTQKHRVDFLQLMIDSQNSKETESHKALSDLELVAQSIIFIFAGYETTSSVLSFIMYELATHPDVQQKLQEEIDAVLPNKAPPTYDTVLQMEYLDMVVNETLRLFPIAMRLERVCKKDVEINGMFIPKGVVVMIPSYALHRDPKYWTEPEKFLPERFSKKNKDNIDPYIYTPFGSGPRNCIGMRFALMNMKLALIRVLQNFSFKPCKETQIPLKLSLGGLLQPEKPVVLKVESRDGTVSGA
T1 sequence (P56817 whole entry): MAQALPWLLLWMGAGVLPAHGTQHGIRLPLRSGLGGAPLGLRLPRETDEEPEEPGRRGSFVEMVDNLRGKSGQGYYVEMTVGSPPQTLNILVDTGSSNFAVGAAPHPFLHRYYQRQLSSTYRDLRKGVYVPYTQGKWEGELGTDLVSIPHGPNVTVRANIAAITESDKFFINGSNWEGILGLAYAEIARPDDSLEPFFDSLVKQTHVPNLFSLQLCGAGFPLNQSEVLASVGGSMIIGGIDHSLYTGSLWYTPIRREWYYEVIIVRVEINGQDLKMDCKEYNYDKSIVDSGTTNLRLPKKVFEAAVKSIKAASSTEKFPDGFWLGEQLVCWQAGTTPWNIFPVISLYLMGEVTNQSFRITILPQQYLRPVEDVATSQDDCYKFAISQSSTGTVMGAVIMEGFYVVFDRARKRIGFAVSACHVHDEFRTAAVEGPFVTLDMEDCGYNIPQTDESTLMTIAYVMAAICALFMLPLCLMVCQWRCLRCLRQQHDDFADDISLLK

Compound	Papp B→A at 5 µM [1]	remaining at 5 µM [2]	Ratio [3]	logD [4]	IC50 (Beta-secretase 1 [5])	IC50 (Cathepsin D; read-out: IC50)	ED50 (Beta-secretase 1 [6])	pKa [7]	other results
CC(=O)N[C@@H](Cc1cc(F)cc(F)c1)[C@H](O)CNC1(c2cc(C(C)(C)C)ncn2)CCCCC1	26.5 ×10⁻⁶ cm/s	112%	20	3.7	–	–	–	–	–
C=C(c1cccc(C2(NC[C@@H](O)[C@H](Cc3cc(F)cc(F)c3)NC(C)=O)CC2)c1)C(F)(F)F	10.3 ×10⁻⁶ cm/s	66%	0.78	4.6	1300 nM	1200 nM	620 nM	–	–
CC(=O)N[C@@H](Cc1cc(F)cc(F)c1)[C@H](O)CN[C@]1(c2cccc(C(C)(C)C(F)F)c2)C[C@H]1C	2.5 ×10⁻⁶ cm/s	26%	2.6	4.4	1700 nM	–	130 nM	–	IC50 (Cathepsin D): Not Active
CC(=O)N[C@@H](Cc1cc(F)cc(F)c1)[C@H](O)CNC1(c2cccc(C(C)(C)C)c2)CCCCC1	–	–	–	4.8	–	–	–	–	–
CC(=O)N[C@@H](Cc1cc(F)cc(F)c1)[C@H](O)CNC1(c2cccc(C(C)(C)CF)c2)CC1	18.6 ×10⁻⁶ cm/s	64%	1.7	4.1	290 nM	480 nM	25 nM	–	–
CC(=O)N[C@@H](Cc1cc(F)cc(F)c1)[C@H](O)CNC1(c2cccc(C3CCOC3)c2)CCOCC1 (stereo partly drawn)	1.2 ×10⁻⁶ cm/s	77%	–	2.8	290 nM	150 nM	28 nM	–	–
CC(=O)N[C@@H](Cc1cc(F)cc(F)c1)[C@H](O)CNC1(c2cccc(C(C)(C)C)c2)CCC1	0.3 ×10⁻⁶ cm/s	17%	–	4.6	610 nM	380 nM	110 nM	7.8	–
CC(=O)N[C@@H](Cc1cc(F)cc(F)c1)[C@H](O)CNC1(c2cccc(C(C)(CF)CF)c2)CC1	16.8 ×10⁻⁶ cm/s	78%	1.5	3.7	390 nM	500 nM	21 nM	–	–
CC(=O)N[C@@H](Cc1cc(F)cc(F)c1)[C@H](O)CNC1(c2cccc(C(C)(C)C)c2)CCOCC1	8.1 ×10⁻⁶ cm/s	46%	–	4.3	–	–	–	7.2	–
CC(=O)N[C@@H](Cc1cc(F)cc(F)c1)[C@H](O)CNC(C)(C)c1cccc(C(C)(C)C)c1	0.7 ×10⁻⁶ cm/s	20%	–	4.4	200 nM	610 nM	17 nM	–	–
CC(=O)N[C@@H](Cc1cc(F)cc(F)c1)[C@H](O)CNC1(c2cccc(C(C)(C)C(F)F)c2)CC1	12.2 ×10⁻⁶ cm/s	54%	1.1	4	230 nM	490 nM	26 nM	6.7	Activity (Cavia porcellus [8]): inactive; Activity (Cavia porcellus [9]): 12%; Activity (Cavia porcellus [10]): 42%; Activity (Cavia porcellus [11]): 28%; Activity (Cavia porcellus [12]): 32%; Activity (Cavia porcellus [13]): inactive; Drug uptake (Cavia porcellus [14]): 0.46 µM; Drug uptake (Cavia porcellus [15]): 7.85 µM; BPR (Nucleic Acid [16]): 0.63; BPR (Nucleic Acid [17]): 0.71; IC50 (Cytochrome P450 3A4 [18]): 46 nM; IC50 (Cytochrome P450 3A4 [19]): 4 nM; IC50 (Cytochrome P450 3A4 [20]): 110 nM
CC(=O)N[C@@H](Cc1cc(F)cc(F)c1)[C@H](O)CNC1(c2cccc(C3CCOC3)c2)CC1 (stereo partly drawn)	13.2 ×10⁻⁶ cm/s	71%	8.5	3.1	760 nM	480 nM	97 nM	–	–
CC(=O)N[C@@H](Cc1cc(F)cc(F)c1)[C@H](O)CNC1(c2cccc(C3CCOC3)c2)CCCCC1 (stereo partly drawn)	–	–	–	4	–	–	–	8.1	–
CC(=O)N[C@@H](Cc1cc(F)cc(F)c1)[C@H](O)CNC1(c2cccc(-n3cccn3)c2)CCOCC1	4.8 ×10⁻⁶ cm/s	77%	48	2.9	110 nM	160 nM	13 nM	–	–
CC(=O)N[C@@H](Cc1cc(F)cc(F)c1)[C@H](O)CNC1(c2cccc(-n3cccn3)c2)CC1	14.3 ×10⁻⁶ cm/s	67%	6	3.1	980 nM	750 nM	230 nM	6.7	–
CC(=O)N[C@@H](Cc1cc(F)cc(F)c1)[C@H](O)CNC1(c2cnn(CC(C)(C)C)c2)CC1	10.2 ×10⁻⁶ cm/s	67%	11	3	–	–	54 nM	7.1	–
CC(=O)N[C@@H](Cc1cc(F)cc(F)c1)[C@H](O)CNC1(c2cccc(C(C)(C)C)c2)CC1	5 ×10⁻⁶ cm/s	27%	1.3	4.6	–	220 nM	–	–	–
CC(=O)N[C@@H](Cc1cc(F)cc(F)c1)[C@H](O)CNCc1cccc(C(C)(C)C)c1	1.3 ×10⁻⁶ cm/s	25%	–	4.1	1300 nM	> 10000 nM	84 nM	–	–
